Structures can show the parent of a compound that is named as a salt.
Key:
[1] = system: hereditary angio-neurotic edema; details: literature reports; cited from earlier work
activated human C1 = activated human C1 (Homo sapiens, UniProt P09871); assay: Test Code 026 (C1 inhibitor); assay type: biochemical; details: serial dilution assay, twofold dilutions; higher well number indicates higher activity
Excerpt: (§1) An active inhibitor protects C2 from C1 and C4; (ii) Test Code 035 (C3-C9 inhibitor)--This test determines the ability of the late components of human complement (C3-C9) to lyse EAC 142 in the presence of appropriate dilutions of the test compound. An active inhibitor protects EAC 142 from lysis by human C3-C9; (iii) Test Code 036 (C-Shunt inhibitor)--In this test human erythrocytes rendered fragile are lysed in autologous serum via the shunt pathway activated by cobra venom factor in the presence of appropriate dilutions of the test compound. Inhibition of the shunt pathway results in failure of lysis; (iv) Forssman Vasculitis Test--Here, the well known complement dependent lesion, Forssman Vasculitis, is produced in guinea pigs by intradermal injection of rabbit anti-Forssman antiserum. The lesion is measured in terms of diameter, edema and hemorrhage and the extent to which a combined index of these is inhibited by prior intraperitoneal injection of the test compound at 200 mg/kg is then reported, unless otherwise stated; (v) Forssman Shock Test--Lethal shock is produced in guinea pigs by an i.v. injection of anti-Forssman antiserum and the harmonic mean death time of treated guinea pigs is compared with that of simultaneous controls; (vi) Complement Level Reduction Test--In this test, the above dosed guinea pigs, or others, are bled for serum and the complement level is determined in undiluted serum by the capillary tube method of U.S. Pat. No. 3,876,376 and compared to undosed control guinea pigs; and (vii) Cap 50 Test--Here, appropriate amounts of the test compound are added to a pool of guinea pig serum in vitro, after which the undiluted serum capillary tube assay referred to above is run. The concentration of compound inhibiting 50% is reported.

shunt pathway = assay: Test Code 036 (C-Shunt inhibitor), lysis of fragile human erythrocytes in autologous serum, cobra venom factor; assay type: biochemical; details: serial dilution assay, twofold dilutions; higher well number indicates higher activity; N = Negative
Excerpt: as §1

[2] = system: late components of human complement (C3-C9); assay: Test Code 035 (C3-C9 inhibitor), lysis of EAC 142; assay type: biochemical; details: serial dilution assay, twofold dilutions; higher well number indicates higher activity; N = Negative
Excerpt: as §1

| Structure (SMILES) | treatment of hereditary angio-neurotic edema [1] | 026 Activity in wells (activated human C1) [wells] | 036 Activity in wells (shunt pathway) | 035 Activity in wells [2] |
| --- | --- | --- | --- | --- |
| NCCCCCC(=O)O [epsilon-aminocaproic acid] | used with success | – | – | – |
| NC[C@H]1CC[C@H](C(=O)O)CC1 [tranexamic acid] | used with success | – | – | – |
| N#CSC[C@H]1O[C@@H]2O[C@H]3[C@H](OS(=O)(=O)O)[C@@H](OS(=O)(=O)O)[C@@H](O[C@H]4[C@H](OS(=O)(=O)O)[C@@H](OS(=O)(=O)O)[C@@H](O[C@H]5[C@H](OS(=O)(=O)O)[C@@H](OS(=O)(=O)O)[C@@H](O[C@H]6[C@H](OS(=O)(=O)O)[C@@H](OS(=O)(=O)O)[C@@H](O[C@H]7[C@H](OS(=O)(=O)O)[C@@H](OS(=O)(=O)O)[C@@H](O[C@H]1[C@H](OS(=O)(=O)O)[C@H]2OS(=O)(=O)O)O[C@@H]7CSC#N)O[C@@H]6CSC#N)O[C@@H]5CSC#N)O[C@@H]4CSC#N)O[C@@H]3CSC#N [α-Cyclo[6-deoxy-6-thiocyanato]dextrin poly(H-sulfate)poly-tr] [6,6',6",6'",6"",6'""-Hexadeoxy-6,6',6",6'",6"",6'""-hexathiocyanato-α-cyclodextrin, dodecakis(H-sulfate), dodecasalt with trimethylamine] | – | 1 | N | N |
| O=S(=O)(O)O[C@@H]1[C@@H](OS(=O)(=O)O)[C@H]2O[C@H]3[C@H](OS(=O)(=O)O)[C@@H](OS(=O)(=O)O)[C@@H](O[C@H]4[C@H](OS(=O)(=O)O)[C@@H](OS(=O)(=O)O)[C@@H](O[C@H]5[C@H](OS(=O)(=O)O)[C@@H](OS(=O)(=O)O)[C@@H](O[C@H]6[C@H](OS(=O)(=O)O)[C@@H](OS(=O)(=O)O)[C@@H](O[C@H]7[C@H](OS(=O)(=O)O)[C@@H](OS(=O)(=O)O)[C@@H](O[C@H]8[C@H](OS(=O)(=O)O)[C@@H](OS(=O)(=O)O)[C@@H](O[C@@H]1[C@@H](CBr)O2)O[C@@H]8CBr)O[C@@H]7CBr)O[C@@H]6CBr)O[C@@H]5CBr)O[C@@H]4CBr)O[C@@H]3CBr [β-Cyclo[6-bromo-6-deoxy]dextrin poly(H-sulfate)poly-sodium s] [6,6',6",6'",6"",6'"",6"""-Heptabromo-6,6',6",6'",6"",6'"",6"""-heptadeoxy-β-cyclodextrin, tetradecakis(H-sulfate), tetradecasodium salt] | – | 7 | 5 wells | 3 wells |
| [N-]=[N+]=NC[C@H]1O[C@@H]2O[C@H]3[C@H](OS(=O)(=O)O)[C@@H](OS(=O)(=O)O)[C@@H](O[C@H]4[C@H](OS(=O)(=O)O)[C@@H](OS(=O)(=O)O)[C@@H](O[C@H]5[C@H](OS(=O)(=O)O)[C@@H](OS(=O)(=O)O)[C@@H](O[C@H]6[C@H](OS(=O)(=O)O)[C@@H](OS(=O)(=O)O)[C@@H](O[C@H]7[C@H](OS(=O)(=O)O)[C@@H](OS(=O)(=O)O)[C@@H](O[C@H]1[C@H](OS(=O)(=O)O)[C@H]2OS(=O)(=O)O)O[C@@H]7CN=[N+]=[N-])O[C@@H]6CN=[N+]=[N-])O[C@@H]5CN=[N+]=[N-])O[C@@H]4CN=[N+]=[N-])O[C@@H]3CN=[N+]=[N-] [α-Cyclo[6-azido-6-deoxy]dextrin poly(H-sulfate)poly-sodium s] [6,6',6",6'",6"",6'""-Hexaazido-6,6',6",6'",6"",6'""-hexadeoxy-α-cyclodextrin, dodecakis(H-sulfate), dodecasodium salt] | – | 7 | 4 wells | 1 wells |
| O=S(=O)(O)O[C@@H]1[C@@H](OS(=O)(=O)O)[C@H]2O[C@H]3[C@H](OS(=O)(=O)O)[C@@H](OS(=O)(=O)O)[C@@H](O[C@H]4[C@H](OS(=O)(=O)O)[C@@H](OS(=O)(=O)O)[C@@H](O[C@H]5[C@H](OS(=O)(=O)O)[C@@H](OS(=O)(=O)O)[C@@H](O[C@H]6[C@H](OS(=O)(=O)O)[C@@H](OS(=O)(=O)O)[C@@H](O[C@H]7[C@H](OS(=O)(=O)O)[C@@H](OS(=O)(=O)O)[C@@H](O[C@@H]1[C@@H](CBr)O2)O[C@@H]7CBr)O[C@@H]6CBr)O[C@@H]5CBr)O[C@@H]4CBr)O[C@@H]3CBr [α-Cyclo[6-bromo-6-deoxy]dextrin poly (H-sulfate)poly-sodium ] [6,6',6",6'",6"",6'""-Hexabromo-6,6',6",6'",6"",6'""-hexadeoxy-α-cyclodextrin dodecakis(H-sulfate), dodecasodium salt] | – | 6 | 4 wells | 5 wells |
| [N-]=[N+]=NC[C@H]1O[C@@H]2O[C@H]3[C@H](OS(=O)(=O)O)[C@@H](OS(=O)(=O)O)[C@@H](O[C@H]4[C@H](OS(=O)(=O)O)[C@@H](OS(=O)(=O)O)[C@@H](O[C@H]5[C@H](OS(=O)(=O)O)[C@@H](OS(=O)(=O)O)[C@@H](O[C@H]6[C@H](OS(=O)(=O)O)[C@@H](OS(=O)(=O)O)[C@@H](O[C@H]7[C@H](OS(=O)(=O)O)[C@@H](OS(=O)(=O)O)[C@@H](O[C@H]8[C@H](OS(=O)(=O)O)[C@@H](OS(=O)(=O)O)[C@@H](O[C@H]1[C@H](OS(=O)(=O)O)[C@H]2OS(=O)(=O)O)O[C@@H]8CN=[N+]=[N-])O[C@@H]7CN=[N+]=[N-])O[C@@H]6CN=[N+]=[N-])O[C@@H]5CN=[N+]=[N-])O[C@@H]4CN=[N+]=[N-])O[C@@H]3CN=[N+]=[N-] [β-Cyclo[6-azido-6-deoxy]dextrin poly(H-sulfate)poly-sodium s] [6,6',6",6'",6"",6'"",6"""-Heptaazido-6,6',6",6'",6"",6'"",6"""-heptadeoxy-β-cyclodextrin, tetradecakis(H-sulfate), tetradecasoium salt] | – | 6 | 4 wells | 2 wells |
| N#CSC[C@H]1O[C@@H]2O[C@H]3[C@H](OS(=O)(=O)O)[C@@H](OS(=O)(=O)O)[C@@H](O[C@H]4[C@H](OS(=O)(=O)O)[C@@H](OS(=O)(=O)O)[C@@H](O[C@H]5[C@H](OS(=O)(=O)O)[C@@H](OS(=O)(=O)O)[C@@H](O[C@H]6[C@H](OS(=O)(=O)O)[C@@H](OS(=O)(=O)O)[C@@H](O[C@H]7[C@H](OS(=O)(=O)O)[C@@H](OS(=O)(=O)O)[C@@H](O[C@H]1[C@H](OS(=O)(=O)O)[C@H]2OS(=O)(=O)O)O[C@@H]7CSC#N)O[C@@H]6CSC#N)O[C@@H]5CSC#N)O[C@@H]4CSC#N)O[C@@H]3CSC#N [α-Cyclo[6-deoxy-6-thiocyanato]dextrin poly(H-sulfate)poly-so] [6,6',6",6'",6"",6'""-Hexadeoxy-6,6',6",6'",6"",6'""-hexathiocyanato-α-cyclodextrin, dodecakis(H-sulfate), dodecasodium salt] | – | 7 | 4 wells | 2 wells |
| N#CSC[C@H]1O[C@@H]2O[C@H]3[C@H](OS(=O)(=O)O)[C@@H](OS(=O)(=O)O)[C@@H](O[C@H]4[C@H](OS(=O)(=O)O)[C@@H](OS(=O)(=O)O)[C@@H](O[C@H]5[C@H](OS(=O)(=O)O)[C@@H](OS(=O)(=O)O)[C@@H](O[C@H]6[C@H](OS(=O)(=O)O)[C@@H](OS(=O)(=O)O)[C@@H](O[C@H]7[C@H](OS(=O)(=O)O)[C@@H](OS(=O)(=O)O)[C@@H](O[C@H]8[C@H](OS(=O)(=O)O)[C@@H](OS(=O)(=O)O)[C@@H](O[C@H]1[C@H](OS(=O)(=O)O)[C@H]2OS(=O)(=O)O)O[C@@H]8CSC#N)O[C@@H]7CSC#N)O[C@@H]6CSC#N)O[C@@H]5CSC#N)O[C@@H]4CSC#N)O[C@@H]3CSC#N [β-Cyclo[6-deoxy-6-thiocyanato]dextrin poly(H-sulfate)poly-so] [6,6',6",6'",6"",6'"",6"""-Heptadeoxy-6,6',6",6'",6"",6'"",6"""-heptathiocyanato-β-cyclodextrin, tetradecakis(H-sulfate), tetradecasodium salt] | – | 7 | 4 wells | 2 wells |
| C[C@H]1O[C@@H]2O[C@H]3[C@H](OS(=O)(=O)O)[C@@H](OS(=O)(=O)O)[C@@H](O[C@H]4[C@H](OS(=O)(=O)O)[C@@H](OS(=O)(=O)O)[C@@H](O[C@H]5[C@H](OS(=O)(=O)O)[C@@H](OS(=O)(=O)O)[C@@H](O[C@H]6[C@H](OS(=O)(=O)O)[C@@H](OS(=O)(=O)O)[C@@H](O[C@H]7[C@H](OS(=O)(=O)O)[C@@H](OS(=O)(=O)O)[C@@H](O[C@H]8[C@H](OS(=O)(=O)O)[C@@H](OS(=O)(=O)O)[C@@H](O[C@H]1[C@H](OS(=O)(=O)O)[C@H]2OS(=O)(=O)O)O[C@@H]8C)O[C@@H]7C)O[C@@H]6C)O[C@@H]5C)O[C@@H]4C)O[C@@H]3C [β-Cyclo[6-deoxy]dextrin poly(H-sulfate)poly-sodium salt] [6,6',6",6'",6"",6'"",6"""-Heptadeoxy-β-cyclodextrin, tetradecakis(H-sulfate), tetradecasodium salt] | – | 9 | 5 wells | 4 wells |
